Assay [1] concerns the target Epidermal growth factor receptor (Homo sapiens, UniProt P00533, T790M/L858R). The experiment in a line: Induction of EGFR L858R/T790M mutant degradation in human NCI-H1975 cells by Western blot analysis. (A western blot detects proteins with antibodies after separation by electrophoresis.)
Assay [2] has as its target Epidermal growth factor receptor (Homo sapiens, UniProt P00533). Kind of assay: Induction of EGFR degradation in human A431 cells by Western blot analysis. The conditions noted are these: a-431.

Epidermal growth factor receptor (Homo sapiens, UniProt P00533), sequence (P00533 whole entry): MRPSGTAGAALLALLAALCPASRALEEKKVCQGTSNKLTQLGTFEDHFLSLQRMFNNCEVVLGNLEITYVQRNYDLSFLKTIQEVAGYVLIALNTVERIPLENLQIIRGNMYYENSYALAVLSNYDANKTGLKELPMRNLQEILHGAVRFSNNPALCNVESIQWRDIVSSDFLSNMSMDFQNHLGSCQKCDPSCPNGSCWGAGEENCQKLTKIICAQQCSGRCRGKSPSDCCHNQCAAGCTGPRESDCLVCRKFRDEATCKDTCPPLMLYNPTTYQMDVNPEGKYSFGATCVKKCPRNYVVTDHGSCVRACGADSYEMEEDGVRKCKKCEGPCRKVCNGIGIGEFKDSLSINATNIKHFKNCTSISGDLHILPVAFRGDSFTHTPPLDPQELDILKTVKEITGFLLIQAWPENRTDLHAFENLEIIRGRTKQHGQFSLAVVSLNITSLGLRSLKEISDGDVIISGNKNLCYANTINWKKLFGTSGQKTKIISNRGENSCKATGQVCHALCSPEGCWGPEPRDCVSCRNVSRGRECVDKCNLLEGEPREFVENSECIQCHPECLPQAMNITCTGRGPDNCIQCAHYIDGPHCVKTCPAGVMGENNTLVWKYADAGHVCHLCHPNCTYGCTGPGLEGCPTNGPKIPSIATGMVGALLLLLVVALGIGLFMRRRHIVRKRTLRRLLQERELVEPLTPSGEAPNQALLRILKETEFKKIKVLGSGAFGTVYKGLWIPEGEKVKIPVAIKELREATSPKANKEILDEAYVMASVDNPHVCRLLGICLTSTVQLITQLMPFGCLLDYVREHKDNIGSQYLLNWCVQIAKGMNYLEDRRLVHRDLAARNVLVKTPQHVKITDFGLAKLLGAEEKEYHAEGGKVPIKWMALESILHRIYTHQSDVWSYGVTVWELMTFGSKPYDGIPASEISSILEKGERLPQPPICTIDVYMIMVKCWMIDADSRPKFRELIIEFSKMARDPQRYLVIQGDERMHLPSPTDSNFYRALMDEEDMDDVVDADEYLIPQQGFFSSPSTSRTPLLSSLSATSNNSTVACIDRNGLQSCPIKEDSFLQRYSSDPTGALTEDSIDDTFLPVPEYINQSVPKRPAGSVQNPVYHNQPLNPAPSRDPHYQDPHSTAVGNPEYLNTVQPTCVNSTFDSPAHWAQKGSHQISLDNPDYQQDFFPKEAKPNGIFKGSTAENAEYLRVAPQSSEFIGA
Epidermal growth factor receptor (Homo sapiens, UniProt P00533, T790M/L858R), sequence (P00533 25-1210 T790M/L858R limits assumed): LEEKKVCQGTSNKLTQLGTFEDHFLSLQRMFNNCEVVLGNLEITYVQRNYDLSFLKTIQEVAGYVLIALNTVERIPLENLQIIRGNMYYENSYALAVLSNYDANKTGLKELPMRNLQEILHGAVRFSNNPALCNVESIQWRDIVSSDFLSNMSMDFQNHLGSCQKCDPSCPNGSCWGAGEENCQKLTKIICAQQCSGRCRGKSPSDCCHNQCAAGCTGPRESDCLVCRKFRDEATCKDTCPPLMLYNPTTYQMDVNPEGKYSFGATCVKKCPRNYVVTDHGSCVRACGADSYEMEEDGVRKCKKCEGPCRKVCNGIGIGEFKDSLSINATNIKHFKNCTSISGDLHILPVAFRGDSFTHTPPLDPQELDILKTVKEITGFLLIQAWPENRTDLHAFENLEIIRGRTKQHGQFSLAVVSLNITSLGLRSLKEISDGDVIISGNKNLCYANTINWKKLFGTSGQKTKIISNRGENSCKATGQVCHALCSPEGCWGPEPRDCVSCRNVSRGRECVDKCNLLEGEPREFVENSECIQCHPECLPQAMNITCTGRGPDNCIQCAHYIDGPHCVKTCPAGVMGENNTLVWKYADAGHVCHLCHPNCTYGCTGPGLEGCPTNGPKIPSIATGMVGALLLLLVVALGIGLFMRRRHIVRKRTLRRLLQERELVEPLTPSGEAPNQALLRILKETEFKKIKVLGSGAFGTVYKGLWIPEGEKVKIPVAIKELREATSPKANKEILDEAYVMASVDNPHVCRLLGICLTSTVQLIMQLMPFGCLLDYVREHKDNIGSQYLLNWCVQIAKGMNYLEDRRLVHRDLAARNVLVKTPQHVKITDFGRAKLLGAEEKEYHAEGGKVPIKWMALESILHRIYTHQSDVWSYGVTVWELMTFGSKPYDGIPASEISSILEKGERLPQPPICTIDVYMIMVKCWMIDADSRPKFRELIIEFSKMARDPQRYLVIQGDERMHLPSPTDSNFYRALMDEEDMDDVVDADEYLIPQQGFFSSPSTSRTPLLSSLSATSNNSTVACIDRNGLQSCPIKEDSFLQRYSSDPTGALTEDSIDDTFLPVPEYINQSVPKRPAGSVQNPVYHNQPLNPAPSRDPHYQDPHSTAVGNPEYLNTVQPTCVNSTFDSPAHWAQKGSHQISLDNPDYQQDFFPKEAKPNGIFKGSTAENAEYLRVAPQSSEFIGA

For the compound `C=CC(=O)Nc1cccc(-n2c(=O)cc(C)c3cnc(Nc4ccc(N5CCN(C)CC5)cc4OC)nc32)c1`, the DC50 in assay [1] and in assay [2] was greater than 2000 nM in each case.

For the origin of these results see ChEMBL document CHEMBL4680227, “Design and synthesis of selective degraders of EGFR mutant” (Eur J Med Chem, 2020).
